Assay results taken from patent publication US8785462B2, “5-hydroxypyrimidine-4-carboxamide derivative” (Daiichi Sankyo Company, Limited, priority 2009, dated 2014).

The molecules below were run on human liver cancer-derived cell line Hep3B (assay: In vitro erythropoietin (EPO) induction activity in Hep3B cells (human EPO ELISA of culture supernatant)). Conditions: test compound 12.5 μM, Hep3B cells cultured 24 hours at 37° C., multiple of the EPO concentration in the control (0.5% DMSO = 1).
Type: cell-based
Procedure: In vitro erythropoietin (EPO) induction activity of test compounds was evaluated using human liver cancer-derived cell line Hep3B (ATCC, Manassas, Va.). Hep3B cells were cultured overnight at 37° C. in Dulbecco's modified Eagle's medium (DMEM) in the presence of 10% fetal bovine serum (FBS) (24-well plate, 1.0×10^5 cells/well). After replacing with fresh DMEM (+10% FBS) containing a test compound dissolved in 0.5% dimethyl sulfoxide (DMSO) (prepared to a concentration of 12.5 μM) or a solvent control (0.5% DMSO), the cells were cultured for 24 hours at 37° C. After recovering the culture supernatant, EPO concentration in the culture supernatant was quantified using a human EPO ELISA kit (StemCell Technologies).
The EPO concentration in the case of using a compound of each example as a test compound was expressed as a multiple of the EPO concentration in the control.
`CC[C@@H](O)Cc1ccc(-c2ccc(N3CCC(Cc4nc(C)c(O)c(C(=O)NCC(=O)O)n4)CC3)cc2)cc1` [Example 48, [({5-Hydroxy-2-[(1-{4′-[(2R)-2-hydroxybutyl]biphenyl-4-yl}piperidin-4-yl)methyl]-6-methylpyrimidin-4-yl}carbonyl)amino]acetic acid] showed a fold induction at 12.5 µM of 42.
Work on `COC[C@H](O)Cc1ccc(-c2ccc(N3CCC(Cc4nc(C)c(O)c(C(=O)NCC(=O)O)n4)CC3)cc2)cc1` [Example 49, [({5-Hydroxy-2-[(1-{4′-[(2R)-2-hydroxy-3-methoxypropyl]biphenyl-4-yl}piperidin-4-yl)methyl]-6-methylpyrimidin-4-yl}carbonyl)amino]acetic acid] yielded a fold induction at 12.5 µM of 18.
In the case of `COC[C@@H](O)Cc1ccc(-c2ccc(N3CCC(Cc4nc(C)c(O)c(C(=O)NCC(=O)O)n4)CC3)cc2)cc1` [Example 50, [({5-Hydroxy-2-[(1-{4′-[(2S)-2-hydroxy-3-methoxypropyl]biphenyl-4-yl}piperidin-4-yl)methyl]-6-methylpyrimidin-4-yl}carbonyl)amino]acetic acid], the fold induction at 12.5 µM was 23.
